Results published in patent US20050054103A1, “Expansion of renewable stem cell populations using modulators of PI 3-kinase” (priority 2003, published 2005).

Legend:
[1] = tested on: CD34+ cell cultures; assay: Colony forming unit (CFU, LTC-CFUc) ability of RAR antagonist treated CD34+ cultures; type: cell-based, human; details: for No. of CFU*103: RAR antagonist 10^−5 M for one week only
Description: Cells were cloned in semi-solid, methylcellulose-containing medium supplemented with 2 IU/ml erythropoietin (Eprex, Cilag AG Int., Switzerland), stem cell factor and IL-3, both at 20 ng/ml, and G-CSF and GM-CSF, both at 10 ng/ml (all from Perpo Tech). Cultures were incubated for 14 days at 37° C., 5% CO2 in a humidified atmosphere.
Briefly, the ability of the cultures to maintain self-renewal was measured by determination of the content of colony forming unit cells in the long and extended long-term cultures (LTC-CFUc), as described in the references hereinabove.
Long-term CD34^+ cell cultures were supplemented with a combination of 4 cytokines, Flt3, TPO, IL-6 and IL-3, with and without varying predetermined concentrations of the RAR antagonist AGN 194310. RAR antagonist treatment of the cultures was for a limited period of three weeks or was continuous during the entire culture period. The ability to form CFUs was determined for long-term (6 weeks) cultures treated with 2 doses of the RAR antagonist for a short pulse or continuously and was compared to control samples treated with cytokines alone.

[2] = tested on: mononuclear cells; assay: RAR antagonist treatment of mononuclear cell fraction cultures; type: cell-based, human; details: Cytokines + RAR antagonist 10^−6 M; for % CD34/Lin^−: reselected CD34+ fraction
Description: Human blood cells were obtained from umbilical cord blood from female patients following full-term, normal delivery (informed consent was obtained). Samples were collected and processed within 12 hours postpartum. Blood was mixed with 3% Gelatin (Sigma, St. Louis, Mo.), sedimented for 30 minutes to remove most red blood cells. The leukocyte-rich fraction was harvested and layered on a Ficoll-Hypaque gradient (1.077 gram/ml; Sigma), and centrifuged at 400 g for 30 minutes. The mononuclear cell fraction in the interface layer was collected, washed three times and resuspended in phosphate-buffered saline (PBS) solution (Biological Industries) containing 0.5% bovine serum albumin (BSA, Fraction V; Sigma).
Alternatively, whole mononuclear fraction cells (MNC) were isolated, cultured and supplemented with cytokines, as above.
CD34^+ purified and whole MNC cultures were prepared and maintained as described above. AGN 194310 RAR antagonist was added to test cultures at concentrations ranging from […] [or 410 μg/l to 4.1×10^−5 μg/l]. The antagonist was added for a predetermined, limited period, for up to three weeks or continuously during the entire culture period.
CD34 surface expression on short and long-term cultures initiated either with purified CD34^+ cells or the entire MNC fraction was determined as follows: CD34^+ cells were positively reselected (Miltenyi kit) and counted. Purity was confirmed by subsequent FACS and cell morphology analysis.
Reselected CD34^+ cell subsets were stained for the following combination of antigens: CD34PE/CD38FITC and CD34PE/38, 33, 14, 15, 3, 4, 61, 19 (Lin) FITC. The fraction positive for CD34 and negative for CD38 was defined as CD34^+CD38^−. The fraction positive for CD34 and negative for LIN was defined as CD34^+Lin^− cell fraction.

[3] = tested on: CD34+ cells; assay: Ex vivo expansion of CD34+ cell enriched cultures with RXR, RAR and RAR+RXR antagonists (CFU, CD34+ counts, FACS); type: cell-based, human; details: 10^−7 M, with TPO, FLT3, IL-6 and IL-3; 3 and 5 weeks
Description: Cultures were prepared and maintained as described above.
, the percentage of cells bearing the CD34^+ marker (considered to be mostly committed progenitor cells), as well as the percentage of cells bearing the markers CD34^+/CD38^− and CD34^+Lin^− […]

[4] = tested on: Hepatocytes; assay: Hepatocyte cultures ex-vivo expanded with TEPA; type: cell-based, BALB/c mice; details: 15 μg/ml TEPA, five weeks
Description: Hepatocytes: Livers were dissected from anesthetized BALB/c mice with sterile tools and immersed into F12 culture medium (Biological Industries, Kibbutz Bet Ha'Emek, Israel). The livers were washed three times with 3% BSA/PBS buffer and minced into small pieces with seizures. Following three washes with 3% BSA/PBS the liver tissue pieces were incubated for 30 minutes with 0.05% collagenase at 37° C. with continuos shaking under 5% CO2 atmosphere. The digested liver tissue pieces were than mashed by pressing through a fine mesh strainer. After three washes with 3% BSA/PBS the liver cells were seeded into F12 culture medium enriched with: 15 mM HEPES buffer, […], 10 mM sodium bicarbonate, 0.5 u/ml insulin, 7.5 ng/ml hydrocortisone and with or without 15 μg/ml of TEPA and incubated at 37° C. in a 5% CO2 atmosphere. After overnight incubation the medium was removed and the cells were supplemented with fresh enriched F12 medium as described above with or without 15 μg/ml of TEPA. Hepatocytes were incubated in 35 mm dishes for several weeks with enriched F12 culture medium with or without 15 μg/ml TEPA at 37° C. under 5% CO2 atmosphere. Cell culture medium was replaced every week with a fresh medium.

[5] = tested on: lethally irradiated Balb/c X C57B1/6 F1 mice; assay: Hematopoietic reconstitution of lethally irradiated mice, fresh vs. ex-vivo expanded cells; type: in vivo
Description: Hematopoietic reconstitution of lethally irradiated mice—fresh vs. ex-vivo expanded cells: Three month old female Balb/c X C57B1/6 F1 mice were lethally irradiated (1000 rad) and transplanted one day later with 1×10^5 fresh bone marrow cells or the yield of 1×10^5 bone marrow cells expanded ex-vivo either with or without TEPA for 3 to 5 weeks, as detailed in Table 12. Peripheral blood WBC counts were performed on weekly basis.

[6] = Exp. I, 3 weeks ex-vivo with TEPA + cytokines, day 13
[7] = Exp. I, 3 weeks ex-vivo with TEPA + cytokines, day 19
[8] = Exp. II, 3 weeks ex-vivo with TEPA + cytokines, day 11
[9] = Exp. II, 3 weeks ex-vivo with TEPA + cytokines, day 29
[10] = Exp. III, 5 weeks ex-vivo with TEPA + cytokines, day 6
[11] = Exp. III, 5 weeks ex-vivo with TEPA + cytokines, day 11

Question: Which results are given for CCc1ccc(C2=CC(C)(C)Sc3ccc(C#Cc4ccc(C(=O)O)cc4)cc32)cc1 [AGN 194310]?
Answer: No. of CFU*103 ([1]; week 13): 66355 *103; No. of CFU*103 ([1]; week 20): 0 *103; increase of CFU content ([1]; extended long-term cultures (week 6 to 10), pulse or continuous treatment): 15×10^4; increase in CFU content as compared to control ([1]; long-term (6 weeks) cultures, pulsed first 3 weeks or continuous antagonist): 5 fold; No of CD34^+/Lin^− × 10^4 (cumulative value) ([2]; 2 weeks): 132.5 × 10^4; No of CD34 cells × 10^4 (cumulative value) ([2]; 2 weeks): 169 × 10^4; % CD34/Lin^− ([2]; 2 weeks): 78%; No of CD34^+/Lin^− × 10^4 (cumulative value) ([2]; 5 weeks): 237.8 × 10^4; No of CD34 cells × 10^4 (cumulative value) ([2]; 5 weeks): 985 × 10^4; % CD34/Lin^− ([2]; 5 weeks): 24%; activity on ex vivo expansion of stem/progenitor cells (CFU, CD34+, CD34+/38−, CD34+/Lin−) [3]: moderate activity

Question: With NCCNCCNCCNCCN [TEPA, tetraethylenepentamine] as the compound, how does the “cell content of hepatocyte cultures” value [4] read?
Answer: The value was “contained many dividing and undifferentiated cells”.

Question: What about the Survival [5, 6] of the same compound?
Answer: The Survival was 5/5.

Question: What about the “WBC × 10^6/ml” value [5, 6] of the same compound?
Answer: The value was 0.7 × 10^6/ml.

Question: And the Survival [5, 7]?
Answer: Its Survival is 5/5.

Question: And the “WBC × 10^6/ml” value [5, 7]?
Answer: Its value is 1.5 × 10^6/ml.

Question: What about the Survival [5, 8] of the same compound?
Answer: Its Survival is 5/5.

Question: What about the “WBC × 10^6/ml” value [5, 8] of the same compound?
Answer: Its value is 0.92 × 10^6/ml.

Question: What about the Survival [5, 9] of the same compound?
Answer: The Survival was 5/5.

Question: And the “WBC × 10^6/ml” value [5, 9]?
Answer: The value was 10.8 × 10^6/ml.

Question: What about the Survival [5, 10] of the same compound?
Answer: The Survival was 5/5.

Question: And the “WBC × 10^6/ml” value [5, 10]?
Answer: Its value is 0.69 × 10^6/ml.

Question: What about the Survival [5, 11] of the same compound?
Answer: Its Survival is 5/5.

Question: What about the “WBC × 10^6/ml” value [5, 11] of the same compound?
Answer: The value was 1.27 × 10^6/ml.

Question: What about the Survival ([5]; Exp. III, 5 weeks ex-vivo with TEPA + cytokines, day 19) of the same compound?
Answer: The Survival was 4/5.

Question: And the Survival ([5]; Exp. III, 5 weeks ex-vivo with TEPA + cytokines, day 27)?
Answer: The Survival was 4/5.

Question: And the “WBC recovery vs fresh cells or cells expanded without TEPA” value ([5]; bone marrow cells expanded ex-vivo in the presence of TEPA)?
Answer: Its value is “faster”.
